Entries after “also recorded” stand apart in the source; their conditions may differ.
Key:
[1] = Centrifuge studies of colloidal fragmentation of tartar; format: in vivo, human; settings: each agent alone
From the text: Together DMI and chlorine dioxide fragment the insoluble glucan and polypeptide matrix which hold tartar together. […] Not to be held to any specific mechanism of action, it would appear that the primary role of chlorine dioxide is to break polypeptide linkages and protein polyol linkages. But this ability alone is insufficient for tartar fragmentation. The insoluble glucan matrix also appears to provide much of the needed glue to keep the tartar intact. Dimethyl isosorbide appears to enter the cracks within the insoluble glucan structure and splay out the glucan structure which in turn promotes the entry of water to re-hydrate the normally insoluble glucan and destabilize and glucan/biofilm matrix and fragment the tartar structure. Evidence for this rehydration and fragmentation mechanism is provided in the following two studies.
In the first study the subject's teeth were flossed with Reach floss, then flossed with a Waterpik water flosser. After the water flossing the water was removed from the mouth. 3 ml of distilled water was added to the mouth and the teeth were brushed with only water for 2 minutes. After the 2 minutes brushing cycle, the water was expelled into a funnel into a centrifuge tube. The subject's teeth were again flossed with a water flosser and then procedure “A” was followed three more times for a total of four 2 minute brushing cycles. […]

[2] = Tartar removal trials by flossing and brushing, intraoral photographs (Example 5); format: in vivo, human; settings: with chlorine dioxide
From the text: All photographs in this example were taken by a professional oral hygienist using a Schick intraoral digital camera.
In other unsuccessful trials dimethyl isosorbide was mixed with numerous common tartar reducing toothpastes. The following picture is typical the failed result of six months of flossing with Reach® waxed floss and brushing twice per day with these various tartar reducing toothpastes with a Philips Sonicare® toothbrush for two minutes. The DMI concentration in each case was 7.1% (w).
The white spots present in FIGS. 15 and 17 are from enamel erosion from previous years of heavy tartar presence and attack of the enamel by bacteria.
In a separate study, 5% (w) DMI was mixed with 0.0094% (w) chlorine dioxide in of water [94.5% (w)]. After flossing the DMI-chlorine dioxide-water mixture was transferred to the mouth of the subject and the subject brushed the teeth for 2 minutes with Philips Sonicare®. After 6 weeks of flossing and brushing twice per day with the DMI-chlorine dioxide-water mixture, the photograph of FIG. 16 was taken.
After the picture of FIG. 16 was taken the trial formulation was changed from 5% (w) to 15% DMI 0.0085% (w) chlorine dioxide in water [84.9% (w)]. This new formulation was used for 8 weeks with the same flossing and brushing regimen used in the first 6 weeks. […]

[3] = system: Streptococcus mutans; settings: high concentrations; cited from earlier work
[4] = 24 hour period, 100% and 50% aqueous concentrations; cited from earlier work
[5] = background statement; cited from earlier work
[6] = Tolerability of chlorine dioxide concentrations in use

Compound | ability to fragment the tartar matrix ([1]; listed as DMI) | removal of preexisting tartar ([2]; DMI levels above 10% (w)) | level of DMI at which no tartar is reported ([2]; light tartar producers) | antibacterial properties [3] | dissolution of collected dental tartar [4] | removal of tartar from teeth [5] | ability to fragment the tartar matrix [1] | problems in use ([6]; chlorine dioxide at 0.01%) | problems in use ([6]; increased concentrations of chlorine dioxide (above 0.01%))
CO[C@H]1CO[C@H]2[C@@H]1OC[C@H]2OC [DMIS, dimethylisosorbide] | Neither chlorine dioxide nor DMI by themselves show the ability to fragment the tartar matrix; also recorded: Neither chlorine dioxide nor DMI alone show the ability to fragment this matrix; also recorded: insufficient to allow DMI alone to rehydrate and fragment the tartar matrix | removed fairly rapidly | around 5% (w) or 8% (w) | weak antibacterial at high concentrations | slowly dissolved | not effective at removing tartar from subjects' teeth in vivo |  |  | 
[O][Cl+][O-] [chlorine dioxide] |  |  |  |  |  | ineffective in removing tartar | Neither chlorine dioxide nor DMI by themselves show the ability to fragment the tartar matrix; also recorded: Neither chlorine dioxide nor DMI alone show the ability to fragment this matrix | no reported problems | no problems

Reference: US10702465B2, “Oral care formulation and method for the removal of tartar and plaque from teeth” (priority 2015, dated 2020)
